Test [1] concerns the target NPC1L1 (Rattus norvegicus, UniProt Q6T3U3). The test is described as follows: NPC1L1 binding assay (BODIPY-labeled glucuronidated ezetimibe competition), rat.
Test [2] has as its target T1, human NPC1L1 (Homo sapiens, UniProt Q9UHC9).
T1 construct: expressed in transfected cells; host or cells: HEK-293 (geneticin selection)
T1 sequence (Q9UHC9 22-1359): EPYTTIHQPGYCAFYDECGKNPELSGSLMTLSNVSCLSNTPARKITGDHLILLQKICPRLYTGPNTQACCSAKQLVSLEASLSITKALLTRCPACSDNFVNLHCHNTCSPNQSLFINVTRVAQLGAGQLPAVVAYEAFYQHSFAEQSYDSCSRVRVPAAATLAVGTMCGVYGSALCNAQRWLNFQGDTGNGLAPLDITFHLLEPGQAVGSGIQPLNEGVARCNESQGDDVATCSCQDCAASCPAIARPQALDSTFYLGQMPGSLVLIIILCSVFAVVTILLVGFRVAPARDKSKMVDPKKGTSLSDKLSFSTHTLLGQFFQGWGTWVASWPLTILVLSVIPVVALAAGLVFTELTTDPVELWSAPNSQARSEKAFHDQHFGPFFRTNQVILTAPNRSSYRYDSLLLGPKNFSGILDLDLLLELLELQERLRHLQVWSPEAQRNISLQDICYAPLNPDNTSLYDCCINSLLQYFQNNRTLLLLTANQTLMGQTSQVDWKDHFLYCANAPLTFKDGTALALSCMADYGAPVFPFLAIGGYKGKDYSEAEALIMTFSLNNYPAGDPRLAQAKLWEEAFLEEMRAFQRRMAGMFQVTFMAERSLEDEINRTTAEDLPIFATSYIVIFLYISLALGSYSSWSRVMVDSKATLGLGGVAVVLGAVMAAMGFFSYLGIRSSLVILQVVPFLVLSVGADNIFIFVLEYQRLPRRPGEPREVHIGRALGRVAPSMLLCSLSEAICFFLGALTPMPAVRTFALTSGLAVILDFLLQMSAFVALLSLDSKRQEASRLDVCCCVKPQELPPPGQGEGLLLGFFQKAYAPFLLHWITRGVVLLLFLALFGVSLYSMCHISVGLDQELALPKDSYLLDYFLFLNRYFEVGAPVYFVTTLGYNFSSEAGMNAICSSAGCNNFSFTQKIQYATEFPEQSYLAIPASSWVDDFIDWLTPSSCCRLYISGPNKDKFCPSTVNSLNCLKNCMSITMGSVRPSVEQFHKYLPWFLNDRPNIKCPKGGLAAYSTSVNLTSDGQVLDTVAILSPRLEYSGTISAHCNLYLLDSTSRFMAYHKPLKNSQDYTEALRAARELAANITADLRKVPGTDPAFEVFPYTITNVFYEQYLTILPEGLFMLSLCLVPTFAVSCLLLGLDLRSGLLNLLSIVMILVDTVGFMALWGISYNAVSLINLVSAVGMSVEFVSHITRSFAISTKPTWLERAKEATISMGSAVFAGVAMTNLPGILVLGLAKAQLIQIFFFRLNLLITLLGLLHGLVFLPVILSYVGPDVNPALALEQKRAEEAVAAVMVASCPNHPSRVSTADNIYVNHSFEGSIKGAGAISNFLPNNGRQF
Description: NPC1L1 binding assay (BODIPY-labeled glucuronidated ezetimibe competition), human. As to conditions: HEK-293 cells expressing human NPC1L1, 4 hours at 37° C. Here is the method: HEK-293 cells expressing human NPC1L1 were plated into 384-well black/clear plates (BD Biosciences, Bedford Mass.) for binding experiments the following day. Cell growth media (DMEM, 10% fetal calf serum, 1 mg/mL geneticin, 100 Units/mL penicillin) was aspirated. Cell growth media ([…]) containing 250 nM BODIPY-labeled glucuronidated ezetimibe was added to each well. Cell growth media ([…]) containing the indicated concentration of compound was then added to the wells. Unlabeled glucuronidated ezetimibe ([…]) was used to determine nonspecific binding. The binding reaction was allowed to proceed for 4 hours at 37° C. Subsequently the cell growth media was aspirated and the cells washed once with PBS. The remaining fluorescent labeled glucuronidated ezetimibe bound to the cells was quantified using a FlexStation plate reader (Molecular Devices, Sunnyvale Calif.) to measure fluorescence intensity. Ki values were determined from competition binding curves (n=4 for each point) using Prism and Activity Base software.

Our source for the Ki values is US20080076751A1, “Azetidinone Derivatives and Methods of Use Thereof” (priority 2006, published 2008).

SMILES strings stand for the structures.

A word on the Ki: it is the dissociation constant of the complex between target and ligand, obtained from inhibition or displacement.

Turning to `O=C(Nc1c(Cl)cccc1Cl)N1CCC2(CC1)C(=O)N(c1ccccc1)C2c1ccccc1` (single isomer, unassigned) [drawing 666], the Ki was 0.782 µM in test [1] and 1.57 µM in test [2].

With `O=C(Nc1c(Cl)cccc1Cl)N1CCC2(CC1)C(=O)N(c1ccccc1)C2c1ccccc1` (single isomer, unassigned) [drawing 667], the inhibition constant Ki in test [1] came to 18 µM; in test [2] it was 17.6 µM.
